One experiment deals with T1, CDK9/CycT1 (Homo sapiens, UniProt P50750).
T1 construct: Recombinant full-length His-tagged human CDK9 and CycT1; purchased Life Technologies PV4131; host or cells: insect cells
As to the kind of experiment: CDK9/CycT1 high ATP kinase assay (TR-FRET, 2 mM ATP). Type of experiment: biochemical. In outline:
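Full-length His-tagged human CDK9/CycT1 (insect cell, ~0.5 μg/mL) preincubated 15 min at 22 °C with compound in Tris pH 8.0, MgCl2, DTT buffer before reaction with biotinylated peptide substrate at high ATP (2 mM).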

Experiment [1] relates to MDA-MB-231, human breast cancer cells. As to the kind of experiment: Proliferation assay MDA-MB-231 (crystal violet, 4 days). Format: cell-based. The conditions noted are these: Homo sapiens, MDA-MB-231 cells, median, read-out: Prolif-MDA MB-231, IC50-[mol/l] (median). In a few lines: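 Growth was measured by crystal violet staining after cells had been treated with compounds (0.01-10 µmol/L, 0.1% DMSO) for 4 days, beginning 24 h after seeding. Values were normalized to a zero-point plate and to untreated controls, and IC50 values were derived by a four-parameter fit.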

Experiment [2] addresses T2, CDK12 (nuclear staining in CAL-120 cells) (Homo sapiens, UniProt Q9NYV4).
T2 construct: endogenous in cells; host or cells: CAL-120 human breast cancer cells (DSMZ ACC 459)
The experiment can be described thus: CDK12 nuclear protein level: immunofluorescence/high content analysis (CAL-120). Type of experiment: cell-based. Particulars: for DC50: CAL-120 cells, 24 h, immunofluorescence, 50% reduction of nuclear CDK12 staining intensity, median, read-out: CDK12 degradation IF, DC50- [mol/l] (median); for (IC50 CDK12 high ATP) to (Degradation DC50 CDK12) ratio: ratio of IC50 CDK12 high ATP kinase assay to DC50 CDK12 degradation (IF, CAL-120). In outline: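 DC50 is the degrader concentration that halves nuclear CDK12 immunofluorescence relative to controls, measured by high-content imaging. CAL-120 cells were exposed to compound for 24 h at 37 °C before PFA fixation, and signal was normalized to DMSO and control wells.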

Experiment [3] has as its target T3, CYCLIN K (nuclear staining in CAL-120 cells) (Homo sapiens, UniProt O75909).
T3 construct: endogenous in cells; host or cells: CAL-120 human breast cancer cells (DSMZ ACC 459)
The experiment can be described thus: CYCLIN K nuclear protein level: immunofluorescence high content analysis (CAL-120). Format: cell-based. The conditions noted are these: 24 h, 50% reduction of nuclear CCNK staining intensity, median, read-out: CYCLIN K degradation IF, DC50-[mol/l] (median). In outline: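 Readout is automated confocal image analysis of nuclear cyclin K immunofluorescence (Hoechst nuclei) after PFA fixation. Cells were CAL-120, exposed to compound dose-response 24 h at 37 °C; values are DC50 for halving nuclear CCNK signal relative to DMSO and control wells.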

Setting [4] is: 2 mM ATP (high ATP), median, read-out: CDK9/CyclinT1, 2 mM ATP (high ATP), IC50 (median).

Where two headings read alike, the source gives them in different places.

T1 sequence (P50750 whole entry): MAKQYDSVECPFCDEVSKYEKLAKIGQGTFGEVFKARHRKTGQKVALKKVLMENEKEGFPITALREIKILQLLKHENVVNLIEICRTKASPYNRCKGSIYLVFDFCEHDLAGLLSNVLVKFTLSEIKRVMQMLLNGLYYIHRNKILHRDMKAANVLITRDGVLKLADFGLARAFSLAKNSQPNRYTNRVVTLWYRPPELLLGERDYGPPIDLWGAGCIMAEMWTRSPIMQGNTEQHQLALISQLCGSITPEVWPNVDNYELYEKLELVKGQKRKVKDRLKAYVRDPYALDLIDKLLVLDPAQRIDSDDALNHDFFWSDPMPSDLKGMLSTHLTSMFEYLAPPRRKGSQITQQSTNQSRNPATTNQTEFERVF
T1 sequence (O60563 whole entry partner): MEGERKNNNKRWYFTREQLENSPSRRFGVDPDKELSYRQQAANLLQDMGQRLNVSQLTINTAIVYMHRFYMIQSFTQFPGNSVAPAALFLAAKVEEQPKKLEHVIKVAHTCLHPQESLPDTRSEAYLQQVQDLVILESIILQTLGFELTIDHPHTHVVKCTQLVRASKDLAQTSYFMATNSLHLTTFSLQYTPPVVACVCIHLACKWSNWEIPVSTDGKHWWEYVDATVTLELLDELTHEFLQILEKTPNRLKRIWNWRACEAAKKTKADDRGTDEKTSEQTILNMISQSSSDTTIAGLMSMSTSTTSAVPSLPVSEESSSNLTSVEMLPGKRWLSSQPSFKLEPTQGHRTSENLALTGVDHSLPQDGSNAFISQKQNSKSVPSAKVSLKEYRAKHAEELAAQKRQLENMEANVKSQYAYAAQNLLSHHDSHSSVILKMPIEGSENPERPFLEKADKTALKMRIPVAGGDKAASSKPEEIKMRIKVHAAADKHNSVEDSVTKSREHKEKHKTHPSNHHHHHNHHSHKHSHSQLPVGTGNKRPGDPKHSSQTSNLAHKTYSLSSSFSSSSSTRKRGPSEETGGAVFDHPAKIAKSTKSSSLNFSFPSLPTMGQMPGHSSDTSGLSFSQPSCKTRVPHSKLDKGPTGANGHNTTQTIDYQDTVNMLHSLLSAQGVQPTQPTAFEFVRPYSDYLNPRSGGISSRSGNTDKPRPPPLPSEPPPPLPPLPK
T2 sequence (Q9NYV4 whole entry): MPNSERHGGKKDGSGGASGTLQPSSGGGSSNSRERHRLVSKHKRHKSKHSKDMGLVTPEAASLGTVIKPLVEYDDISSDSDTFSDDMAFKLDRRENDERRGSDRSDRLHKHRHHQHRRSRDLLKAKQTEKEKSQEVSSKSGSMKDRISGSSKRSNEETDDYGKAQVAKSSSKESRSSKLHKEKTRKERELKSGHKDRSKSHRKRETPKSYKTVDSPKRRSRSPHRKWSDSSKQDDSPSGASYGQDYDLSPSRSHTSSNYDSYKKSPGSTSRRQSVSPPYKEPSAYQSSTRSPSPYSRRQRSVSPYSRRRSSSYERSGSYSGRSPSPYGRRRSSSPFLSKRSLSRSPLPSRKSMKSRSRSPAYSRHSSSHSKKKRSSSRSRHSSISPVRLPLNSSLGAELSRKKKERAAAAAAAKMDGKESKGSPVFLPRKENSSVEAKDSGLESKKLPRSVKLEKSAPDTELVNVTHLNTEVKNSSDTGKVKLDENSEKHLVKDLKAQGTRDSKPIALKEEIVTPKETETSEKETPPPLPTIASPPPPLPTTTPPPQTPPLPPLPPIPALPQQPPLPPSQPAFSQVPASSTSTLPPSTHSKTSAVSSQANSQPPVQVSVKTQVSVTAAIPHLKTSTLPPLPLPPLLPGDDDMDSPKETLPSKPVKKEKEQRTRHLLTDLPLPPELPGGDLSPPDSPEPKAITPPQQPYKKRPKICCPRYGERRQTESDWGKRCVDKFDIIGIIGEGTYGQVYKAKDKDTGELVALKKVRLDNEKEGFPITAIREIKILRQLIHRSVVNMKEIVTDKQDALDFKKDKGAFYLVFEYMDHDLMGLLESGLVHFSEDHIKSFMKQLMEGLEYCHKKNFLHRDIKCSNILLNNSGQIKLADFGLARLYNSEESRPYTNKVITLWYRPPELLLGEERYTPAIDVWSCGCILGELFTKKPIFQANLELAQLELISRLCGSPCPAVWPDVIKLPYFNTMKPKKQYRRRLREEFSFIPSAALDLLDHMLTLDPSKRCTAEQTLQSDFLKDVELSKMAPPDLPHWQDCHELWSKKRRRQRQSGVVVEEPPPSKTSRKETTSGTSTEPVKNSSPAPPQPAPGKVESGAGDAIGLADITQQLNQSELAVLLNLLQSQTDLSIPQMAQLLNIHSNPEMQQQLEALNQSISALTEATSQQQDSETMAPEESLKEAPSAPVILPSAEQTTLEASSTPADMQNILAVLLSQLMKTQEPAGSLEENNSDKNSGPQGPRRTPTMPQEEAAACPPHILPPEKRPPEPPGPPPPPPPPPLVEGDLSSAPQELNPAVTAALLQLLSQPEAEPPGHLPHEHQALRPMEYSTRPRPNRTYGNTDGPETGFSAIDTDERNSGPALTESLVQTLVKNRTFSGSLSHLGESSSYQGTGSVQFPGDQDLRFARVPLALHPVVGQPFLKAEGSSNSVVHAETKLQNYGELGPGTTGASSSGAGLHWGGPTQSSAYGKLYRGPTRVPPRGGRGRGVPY
T2 sequence (O75909 whole entry partner): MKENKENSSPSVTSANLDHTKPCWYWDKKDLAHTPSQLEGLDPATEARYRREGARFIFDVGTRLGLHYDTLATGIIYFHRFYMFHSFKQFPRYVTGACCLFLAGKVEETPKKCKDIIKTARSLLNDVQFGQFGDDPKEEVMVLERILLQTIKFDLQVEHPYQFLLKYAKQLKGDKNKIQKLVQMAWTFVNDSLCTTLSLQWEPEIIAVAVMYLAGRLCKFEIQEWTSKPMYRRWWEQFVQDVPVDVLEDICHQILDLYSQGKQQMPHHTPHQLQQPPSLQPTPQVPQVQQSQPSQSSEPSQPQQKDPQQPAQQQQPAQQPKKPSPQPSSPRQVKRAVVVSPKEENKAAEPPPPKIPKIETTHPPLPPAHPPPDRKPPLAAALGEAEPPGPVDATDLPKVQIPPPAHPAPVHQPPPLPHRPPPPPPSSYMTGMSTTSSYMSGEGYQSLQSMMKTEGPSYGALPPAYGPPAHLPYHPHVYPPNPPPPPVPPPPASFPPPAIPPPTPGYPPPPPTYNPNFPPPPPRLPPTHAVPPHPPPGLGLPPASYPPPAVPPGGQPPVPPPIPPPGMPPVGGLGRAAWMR
T3 sequence (O75909 whole entry): as the sequence (O75909 whole entry partner) above
T3 sequence (Q9NYV4 whole entry partner): as the sequence (Q9NYV4 whole entry) above

In the case of `Fc1c(Cl)ccc2[nH]c(CNc3nc(N4CC5CCC(C4)N5)nc4c(Br)cnn34)nc12` [Example 380, 8-bromo-N-[(5-chloro-4-fluoro-1H-benzimidazol-2-yl)methyl]-2-(3,8-diazabicyclo[3.2.1]octan-3-yl)pyrazolo[1,5-a][1,3,5]triazin-4-amine], the IC50 on CDK9/CycT1 (setting [4]) came to 5930 nM; in experiment [1] (MDA-MB-231, 96 h), 2.19 nM. The DC50 amounted to 2.32 nM in experiment [2] and 0.22 nM in experiment [3]. Moreover, the “(IC50 CDK12 high ATP) to (Degradation DC50 CDK12) ratio” value in experiment [2] turned out to be 438.
On the same counts, the results for `Cc1cc2nc(CNc3nc(N(C)CC(C)(C)O)nc4c(C5CC5)cnn34)[nH]c2cc1C` [Example 321, 1-[(8-cyclopropyl-4-{[(5,6-dimethyl-1H-benzimidazol-2-yl)methyl]amino}pyrazolo[1,5-a][1,3,5]triazin-2-yl)(methyl)amino]-2-methylpropan-2-ol] are 7300 nM, 2.45 nM, 6.23 nM, 1.36 nM and 67.
On the same counts, the results for `Cc1ccnc2[nH]c(CNc3nc(N4CCOCC4)nc4c(C(C)C)cnn34)nc12` [Example 28, N-[(7-methyl-3H-imidazo[4,5-b]pyridin-2-yl)methyl]-2-(morpholin-4-yl)-8-(propan-2-yl)pyrazolo[1,5-a][1,3,5]triazin-4-amine] are greater than 20000 nM, 74.5 nM, 6.5 nM, 0.888 nM and 511.
On the same counts, the results for `Fc1c(Cl)ccc2[nH]c(CNc3nc(N4CCOCC4)nc4c(Br)cnn34)nc12` [Example 372, 8-bromo-N-[(5-chloro-4-fluoro-1H-benzimidazol-2-yl)methyl]-2-(morpholin-4-yl)pyrazolo[1,5-a][1,3,5]triazin-4-amine] are 3930 nM, 4.28 nM, 2.44 nM, 0.227 nM and 110.
Consider `Fc1cc2nc(CNc3nc(N4CC5CCC(C4)N5)nc4c(Br)cnn34)[nH]c2cc1Cl` [Example 348, 8-bromo-N-[(6-chloro-5-fluoro-1H-benzimidazol-2-yl)methyl]-2-(3,8-diazabicyclo[3.2.1]octan-3-yl)pyrazolo[1,5-a][1,3,5]triazin-4-amine], for which the IC50 at CDK9/CycT1 was 14000 nM; in experiment [1] (96 h) it was 2 nM. Also, the DC50 in experiment [2] is 5.3 nM; in experiment [3] it was 1.17 nM. Moreover, the “(IC50 CDK12 high ATP) to (Degradation DC50 CDK12) ratio” value in experiment [2] came out at 546.
Regarding `CN1CCN(c2nc(NCc3nc4cc(F)c(F)cc4[nH]3)n3ncc(Br)c3n2)CC1` [Example 346, 8-bromo-N-[(5,6-difluoro-1H-benzimidazol-2-yl)methyl]-2-(4-methylpiperazin-1-yl)pyrazolo[1,5-a][1,3,5]triazin-4-amine], the IC50 on CDK9/CycT1 (setting [4]) was greater than 20000 nM; in experiment [1] (MDA-MB-231, 96 h), 4.67 nM. For the same compound, the DC50 is 2.35 nM in experiment [2] and 0.149 nM in experiment [3]. In addition, the “(IC50 CDK12 high ATP) to (Degradation DC50 CDK12) ratio” value in experiment [2] was determined as 5220.
On the same counts, the results for `FC(F)(F)c1ccc2[nH]c(CNc3nc(N4CC5CCC(C4)N5)nc4c(C5CC5)cnn34)nc2c1` [Example 327, 8-cyclopropyl-2-(3,8-diazabicyclo[3.2.1]octan-3-yl)-N-{[5-(trifluoromethyl)-1H-benzimidazol-2-yl]methyl}pyrazolo[1,5-a][1,3,5]triazin-4-amine] are greater than 20000 nM, 2.27 nM, 10 nM, 0.493 nM and 235.
The matching figures for `CN1CCN(c2nc(NCc3nc4cc(C(F)(F)F)ccc4[nH]3)n3ncc(Br)c3n2)CC1` [Example 344, 8-bromo-2-(4-methylpiperazin-1-yl)-N-{[5-(trifluoromethyl)-1H-benzimidazol-2-yl]methyl}pyrazolo[1,5-a][1,3,5]triazin-4-amine]: greater than 20000 nM, 4.82 nM, 6.69 nM, 0.392 nM and 1251.
In the case of `CN1CCN(c2nc(NCc3nc4c(F)c(Cl)ccc4[nH]3)n3ncc(Br)c3n2)CC1` [Example 373, 8-bromo-N-[(5-chloro-4-fluoro-1H-benzimidazol-2-yl)methyl]-2-(4-methylpiperazin-1-yl)pyrazolo[1,5-a][1,3,5]triazin-4-amine], the IC50 came out at 14400 nM at CDK9/CycT1 (setting [4]) and 3.33 nM in experiment [1] (MDA-MB-231, 96 h). Besides, the DC50 amounted to 1.12 nM in experiment [2] and 0.0805 nM in experiment [3]. For the same compound, in experiment [2], the “(IC50 CDK12 high ATP) to (Degradation DC50 CDK12) ratio” value is on record as 2719.
The matching figures for `Fc1c(Cl)ccc2[nH]c(CNc3nc(N4CC5CCC(C4)N5)nc4c(C5CC5)cnn34)nc12` [Example 379, N-[(5-chloro-4-fluoro-1H-benzimidazol-2-yl)methyl]-8-cyclopropyl-2-(3,8-diazabicyclo[3.2.1]octan-3-yl)pyrazolo[1,5-a][1,3,5]triazin-4-amine]: 11300 nM, 2.92 nM, 4.35 nM, 0.404 nM and 121.
On the same counts, the results for `Fc1c(Cl)ccc2[nH]c(CNc3nc(N4CCOCC4)nc4c(C5CC5)cnn34)nc12` [Example 370, N-[(5-chloro-4-fluoro-1H-benzimidazol-2-yl)methyl]-8-cyclopropyl-2-(morpholin-4-yl)pyrazolo[1,5-a][1,3,5]triazin-4-amine] are greater than 20000 nM, 7.18 nM, 2.19 nM, 0.258 nM and 77.
The matching figures for `Cc1cc2nc(CNc3nc(N4CCOCC4)nc4c(Br)cnn34)[nH]c2cc1C` [Example 340, 8-bromo-N-[(5,6-dimethyl-1H-benzimidazol-2-yl)methyl]-2-(morpholin-4-yl)pyrazolo[1,5-a][1,3,5]triazin-4-amine]: 12600 nM, 4.36 nM, 7.8 nM, 0.827 nM and 79.

The values are drawn from patent US20230117034A1, “PYRAZOLOTRIAZINES” (Bayer Aktiengesellschaft, priority 2019, published 2023).
